Measurements as given in the supplement of paper PMC10307832.

What was measured:
Experiment in all cases: relative viability (nuclei count vs DMSO), 5 days (fraction); higher = more cells survive
[1] = compound: C/C(=N\NC(=S)N1CCC1)/C2=CC=CC=N2 + Cc1cc(Nc2cc(N3CCN(C)CC3)nc(Sc3ccc(NC(=O)C4CC4)cc3)n2)n[nH]1 [Tozasertib] (partner 0.1 µM)
In short: (§1)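 A single step with final 0.05% Triton X-100, 1% formaldehyde and 1 ug/ml Hoechst fixed the cells and stained nuclei 5 days after treatment. Lung cancer cell lines in 1536-well plates had been treated by pin tool the day after seeding with one drug alone or a fixed anchor-drug dose plus five library-drug doses (not always all listed) in √10 steps, and nuclei were counted on 4× images. Relative viability is the ratio of nuclei in treated wells to nuclei in vehicle wells, taken as the median of duplicate plates.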

[2] = compound: C/C(=N\NC(=S)N1CCC1)/C2=CC=CC=N2 + COc1cc2c(Oc3ccc(NC(=O)C4(C(=O)Nc5ccc(F)cc5)CC4)cc3F)ccnc2cc1OCCCN1CCOCC1 [Foretinib] (partner 0.25 µM)
In short: as §1

[3] = compound: C/C(=N\NC(=S)N1CCC1)/C2=CC=CC=N2 + CCNC(=O)c1noc(-c2cc(C(C)C)c(O)cc2O)c1-c1ccc(CN2CCOCC2)cc1 [Luminespib] (partner 0.01 µM)
In short: as §1

[4] = compound: C/C(=N\NC(=S)N1CCC1)/C2=CC=CC=N2 + NC(=O)Nc1cc(-c2cccc(F)c2)sc1C(=O)N[C@H]1CCCNC1 [AZD7762] (partner 0.2 µM)
In short: as §1

Row | Cell Line | relative viability ([1]; first compound 0.05 µM) | relative viability ([1]; first compound 0.1581 µM) | relative viability ([1]; first compound 0.5 µM) | relative viability ([1]; first compound 1.581 µM) | relative viability ([1]; first compound 5 µM) | relative viability ([2]; first compound 0.05 µM) | relative viability ([2]; first compound 0.1581 µM) | relative viability ([2]; first compound 0.5 µM) | relative viability ([2]; first compound 1.581 µM) | relative viability ([2]; first compound 5 µM) | relative viability ([3]; first compound 0.05 µM) | relative viability ([3]; first compound 0.1581 µM) | relative viability ([3]; first compound 0.5 µM) | relative viability ([3]; first compound 1.581 µM) | relative viability ([3]; first compound 5 µM) | relative viability ([4]; first compound 0.05 µM) | relative viability ([4]; first compound 0.1581 µM) | relative viability ([4]; first compound 0.5 µM) | relative viability ([4]; first compound 1.581 µM) | relative viability ([4]; first compound 5 µM)
1 | NCI-H2170 | 0.659 | 0.334 | 0.197 | 0.113 | 0.141 | 0.871 | 0.341 | 0.312 | 0.199 | 0.203 | 0.689 | 0.25 | 0.136 | 0.18 | 0.151 | 0.298 | 0.178 | 0.153 | 0.126 | 0.1
2 | NCI-H2342 | 0.229 | 0.264 | 0.263 | 0.219 | 0.247 | 0.255 | 0.244 | 0.263 | 0.24 | 0.233 | 0.261 | 0.279 | 0.23 | 0.245 | 0.238 | 0.302 | 0.32 | 0.278 | 0.256 | 0.285
3 | NCI-H2347 | 0.173 | 0.254 | 0.177 | 0.244 | 0.258 | 0.321 | 0.391 | 0.312 | 0.31 | 0.28 | 0.263 | 0.238 | 0.213 | 0.251 | 0.235 | 0.192 | 0.235 | 0.218 | 0.198 | 0.244
4 | NCI-H2405 | 0.24 | 0.286 | 0.266 | 0.239 | 0.253 | 0.263 | 0.313 | 0.31 | 0.251 | 0.264 | 0.218 | 0.245 | 0.287 | 0.242 | 0.283 | 0.215 | 0.245 | 0.253 | 0.186 | 0.23
5 | NCI-H3122 | 0.0931 | 0.0762 | 0.0946 | 0.109 | 0.0776 | 0.101 | 0.0817 | 0.0973 | 0.149 | 0.158 | 0.0803 | 0.063 | 0.0978 | 0.134 | 0.11 | 0.0944 | 0.0773 | 0.115 | 0.13 | 0.114
6 | PC-3 [JPC-3] | 0.612 | 0.474 | 0.3 | 0.281 | 0.241 | 0.518 | 0.525 | 0.349 | 0.259 | 0.242 | 0.354 | 0.415 | 0.257 | 0.232 | 0.216 | 0.317 | 0.384 | 0.307 | 0.243 | 0.234
7 | PC-14 | 0.0506 | 0.0536 | 0.0474 | 0.05 | 0.0386 | 0.141 | 0.113 | 0.129 | 0.0971 | 0.0805 | 0.104 | 0.126 | 0.112 | 0.0879 | 0.095 | 0.08 | 0.12 | 0.106 | 0.0559 | 0.0985
8 | RERF-LC-KJ | 0.203 | 0.208 | 0.246 | 0.217 | 0.242 | 0.292 | 0.261 | 0.297 | 0.28 | 0.259 | 0.343 | 0.306 | 0.272 | 0.265 | 0.294 | 0.176 | 0.238 | 0.18 | 0.16 | 0.208
9 | SW 900 | 0.155 | 0.107 | 0.0961 | 0.14 | 0.178 | 0.117 | 0.114 | 0.0636 | 0.068 | 0.15 | 0.162 | 0.144 | 0.106 | 0.124 | 0.184 | 0.188 | 0.122 | 0.0988 | 0.188 | 0.171
